Laboratory results from US20040110963A1, “Novel hydrazones” (priority 2001, published 2004).
In brackets after ≈: the same amount, converted by molar mass.

What was measured:
[1] = target: enzyme I of the bacterial phosphotransferase system (PTS) (Escherichia coli, UniProt P08839); test: Assay for Enzyme I dependent PEP: peptide phosphotransferase activity (LDH-coupled, NADH read-out at 340 nm); assay type: biochemical; conditions: enzyme I 0.75 μM, 0.8 mM PEP, pH 7.5; read-out: Inhibition of PTS (IC50 in μM)
From the text: The determination of activity of a compound of the present invention in the PTS may be summarized as follows:
Assay for Enzyme I Dependent PEP:
Peptide Phosphotransferase Activity. [formula]
To find inhibitors of Enzyme I of the PTS by high throughput screening, an in vitro assay based on spectrophotometric read out at 340 nm has been set up. The assay comprises of three major components, purified enzyme I in catalytic amounts, Phosphoenol Pyruvate (PEP) as the phosphoryl donor substrate and purified HPr as the phosphoryl acceptor substrate.
The assay couples the formation of pyruvate formed from PEP to lactate, catalyzed by lactate dehydrogenase. The disappearance of NADH, cofactor required by lactate dehydrogenase, is determined spectrophotometerically at 340 nm. The assay is done in a U-shaped microtiter plate format, and quantitation is done using microplate absorbance reader.
100 μl reaction mixture contained 0.8 mM PEP, 0.2 mM NADH, 3 μg lactate dehydrogenase (Boehringer Mannheim), 50 mM KPi pH=7.5, 2.5 mM dithiothreitol, 2.5 mM NaF, 5 mM MgCI2, and between 50 and 100 μM of the compound. The reaction is started by the addition of enzyme I (final concentration 0.75 μM). In a control experiment the compound is replaced by DMSO.

[2] = system: Staphylococcus aureus ATCC25923; test: In vitro antibacterial activity (MIC, NCCLS M7-A5 dilution susceptibility test); assay type: cell-based; conditions: for MIC: read-out: Minimum Inhibitory Concentration (MIC) Staphylococcus aureus ATCC25923
Procedure: (§1) Antimicrobial susceptibility testing was performed in accordance with the National Committee for Clinical Laboratory Standards (NCCLS) procedure [M7-A5, 2001: Methods for Dilution Antimicrobial Susceptibility Tests for Bacteria That Grow Aerobically; Approved Standard-Fifth Edition American National Standard].

Escherichia coli DC2 = test: as above; assay type: cell-based; conditions: for MIC: read-out: Minimum Inhibitory Concentration (MIC) Escherichia coli DC2
Procedure: as §1

[3] = system: Staphylococcus aureus 101; test: as above; assay type: cell-based; conditions: read-out: Minimum Inhibitory Concentration (MIC) Staphylococcus aureus 101
Procedure: as §1

Row | Compound | IC50 [1] [µM] | MIC [2] [µg/mL] | MIC (Escherichia coli DC2) [µg/mL] | also measured
1 | COc1cccc(C(=O)NN=C(C)c2ccccc2N)c1 [Example 25, 3-Methoxy-N′-[1-(2-Amino-phenyl)-ethylidene]-benzohydrazide] | 20 |  |  | 
2 | O=C(NN=Cc1cc(O)ccc1O)c1ccc(Cl)cc1 [Example 10, 4-Chloro-N′-(2,5-dihydroxy-benzylidene)-benzohydrazide] | 8 | 128 (≈ 440 µM) | > 128 | 
3 | O=C(NN=Cc1cc(Cl)ccc1O)c1cccc(Cl)c1 [Example 38, 3-Chloro-N′-(2-hydroxy-5-chloro-benzylidene)-benzohydrazide] | 75 |  |  | 
4 | O=C(NN=Cc1cc(O)ccc1O)c1cccc(C(F)(F)F)c1 [Example 34, 3-Trifluoromethyl-N′-(2,5-dihydroxy-benzylidene)-benzohydrazide] | 15 |  |  | 
5 | CNc1ccccc1C(=O)NN=Cc1cc(Cl)ccc1O [Example 18, 2-Methylamino-N′-(5-chloro-2-hydroxy-benzylidene)-benzohydrazide] | 4 |  |  | 
6 | O=C(NN=Cc1ccc(O)c(O)c1O)c1ccccc1 [Example 28, N′-(2,3,4-Trihydroxy-benzylidene)-benzohydrazide] | 3 |  |  | 
7 | O=C(NN=Cc1ccc(O)c(O)c1O)c1cccc(C(F)(F)F)c1 [Example 51, 3-Trifluoromethyl-N′-(2,3,4-trihydroxy-benzylidene)-benzohydrazide] |  | 8 (≈ 23.5 µM) | 64 (≈ 188 µM) | 
8 | O=C(NN=Cc1ccc(O)c(O)c1O)c1cccc(Cl)c1 [Example 49, 3-Chloro-N′-(2,3,4-trihydroxy-benzylidene)-benzohydrazide] |  | 16 (≈ 52.2 µM) | 64 (≈ 209 µM) | 
9 | O=C(NN=Cc1cc(O)ccc1O)c1ccccc1 [Example 1, N′-(2,5-Dihydroxy-benzylidene)-benzohydrazide] | 15 | 64 (≈ 250 µM) | 128 (≈ 499 µM) | 
10 | Cc1cccc(C(=O)NN=Cc2cc(O)ccc2O)c1 [Example 33, 3-Methyl-N′-(2,5-dihydroxy-benzylidene)-benzohydrazide] | 2 |  |  | 
11 | O=C(NN=Cc1cc(O)c(O)cc1O)c1ccc(Cl)cc1 [Example 47, 4-Chloro-N′-(2,4,5-trihydroxy-benzylidene)-benzohydrazide] |  | 8 (≈ 26.1 µM) | 64 (≈ 209 µM) | 
12 | CC(=NNC(=O)c1ccc(O)cc1)c1cc(O)ccc1O [Example 35, 4-Hydroxy-N′-[1-(2,5-dihydroxy-phenyl)-ethylidene]-benzohydrazide] | 1.75 |  |  | 
13 | COc1cc(C(=O)NN=Cc2cc(O)ccc2O)ccc1O [Example 16, N′-(2,5-Dihydroxy-benzylidene)-4-hydroxy-3-methoxy-benzohydrazide] | 4 |  |  | 
14 | O=C(Cc1c[nH]c2ccccc12)NN=Cc1ccccc1O [Example 2, N′-(2-Hydroxy-benzylidene)-2-(1H-indol-3-yl)-acetohydrazide] | 50 |  |  | 
15 | CC(=NNC(=O)c1ccccc1)c1cc(O)ccc1O [Example 15, N′-[1-(2,5-Dihydroxy-phenyl)-ethylidene]-benzohydrazide] | 6 |  |  | 
16 | 4-chloro-N′-(2-hydroxy-3-chloro-benzylidene)-benzohydrazide [Example 36] | 100 |  |  | 
17 | COc1cccc(C(=O)NN=Cc2cc(O)ccc2O)c1 [Example 8, 3-Methoxy-N′-(2,5-dihydroxy-benzylidene)-benzohydrazide] | 15 |  |  | 
18 | O=C(NN=Cc1cc(O)ccc1O)c1cccc2ccccc12 [Example 3, N′-(2,5-Dihydroxy-benzylidene)-naphthalene-1-carbohydrazide] | 6 |  |  | 
19 | O=C(NN=Cc1ccc(O)c(O)c1O)c1ccc(Cl)c(Cl)c1 [Example 9, 3,4-Dichloro-N′-(2,3,4-trihydroxy-benzylidene)-benzohydrazide] | 75 | 8 (≈ 23.5 µM) | 32 (≈ 93.8 µM) | 
20 | O=C(NN=Cc1cccc(O)c1O)c1ccc(Cl)c(Cl)c1 [Example 40, 3,4-Dichloro-N′-(2,3-dihydroxy-benzylidene)-benzohydrazide] |  | 4 (≈ 12.3 µM) | > 128 | MIC [3]: 4 µg/mL (≈ 12.3 µM)
21 | O=C(NN=Cc1cc(O)c(O)cc1O)c1cccc(C(F)(F)F)c1 [Example 50, 3-Trifluoromethyl-N′-(2,4,5-trihydroxy-benzylidene)-benzohydrazide] |  | 32 (≈ 94 µM) | > 128 | 
22 | Cc1ccc(O)c(C=NNC(=O)c2ccccc2)c1 [Example 17, N′-(2-Hydroxy-5-methyl-benzylidene)-benzohydrazide] | 6 |  |  | 

Row | Compound | IC50 [1] [µM] | MIC [2] [µg/mL] | MIC (Escherichia coli DC2) [µg/mL] | also measured
23 | COc1cccc(C(=O)NN=C(C)c2ccccc2O)c1 [Example 7, 3-Methoxy-N′-[1-(2-hydroxy-phenyl)-ethylidene]-benzohydrazide] | 8 |  |  | 
24 | O=C(NN=Cc1ccc(O)cc1O)c1ccc(Cl)cc1 [Example 37, 4-Chloro-N′-(2,4-dihydroxy-benzylidene)-benzohydrazide] | 20 |  |  | 
25 | COc1cc(C(=O)NN=Cc2ccc(O)c(O)c2O)cc(OC)c1OC [Example 4, 3,4,5-Trimethoxy-N′-(2,3,4-trihydroxy-benzylidene)-benzohydrazide] | 15 | 128 (≈ 353 µM) | 128 (≈ 353 µM) | 
26 | CNc1ccccc1C(=O)NN=C(C)c1ccccc1O [Example 22, 2-methylamino-N′-[1-(2-hydroxy-phenyl)-ethylidene]-benzohydrazide] | 2 |  |  | 
27 | O=C(NN=Cc1ccccc1O)c1cccc(C(F)(F)F)c1 [Example 32, 3-Trifluoromethyl-N′-(2-hydroxy-benzylidene)-benzohydrazide] | 7 |  |  | 
28 | O=C(NN=Cc1ccc(O)cc1O)c1cccc(C(F)(F)F)c1 [Example 6, 3-Trifluoromethyl-N′-(2,4-dihydroxy-benzylidene)-benzohydrazide] | 10 | > 128 | 32 (≈ 98.7 µM) | 
29 | CC(=NNC(=O)c1ccc(Cl)c(Cl)c1)c1ccc(O)c(O)c1O [Example 52, 3,4-Dichloro-N′-[1-(2,3,4-dihydroxy-phenyl)-ethylidene]-benzohydrazide] |  |  |  | Minimum Inhibitory Concentration (MIC) Staphylococcus aureus ATCC25923 [2]: 4 micrograms/ml; Minimum Inhibitory Concentration (MIC) Escherichia coli DC2 (Escherichia coli DC2): 64 micrograms/ml
30 | CN(N=Cc1ccc(O)c(O)c1O)C(=O)c1ccc(Cl)c(Cl)c1 [Example 53, 3,4-Dichloro-N-methyl-N′-(2,3,4-trihydroxy-benzylidene)-benzohydrazide] |  | 128 (≈ 360 µM) | > 128 | 
31 | O=C(NN=Cc1cc(O)ccc1O)c1ccc(O)cc1 [Example 11, 4-Hydroxy-N′-(2,5-dihydroxy-benzylidene)-benzohydrazide] | 0.5 |  |  | 
32 | O=C(NN=Cc1cc(Cl)ccc1O)c1cccc(C(F)(F)F)c1 [Example 21, 3-Trifluoromethyl-N′-(5-chloro-2-hydroxy-benzylidene)-benzohydrazide] | 12 | 16 (≈ 46.7 µM) | > 128 | 
33 | O=C(NN=Cc1cccc(O)c1O)c1ccccc1 [Example 26, N′-(2,3-Dihydroxy-benzylidene)-benzohydrazide] | 50 |  |  | 
34 | CNc1ccccc1C(=O)NN=Cc1cc(O)ccc1O [Example 19, 2-Methylamino-N′-(2,5-dihydroxy-benzylidene)-benzohydrazide] | 2 |  |  | 
35 | CC(=NNC(=O)c1ccc(Cl)cc1)c1ccccc1N [Example 24, 4-Chloro-N′-[1-(2-amino-phenyl)-ethylidene]-benzohydrazide] | 0.8 |  |  | 
36 | CC(=O)Nc1ccccc1C(C)=NNC(=O)c1ccccc1 [Example 23, N-[2-[1-(2-Benzoyl-hydrazono)-ethyl]-phenyl]-acetamide] | 250 |  |  | 
37 | O=C(NN=Cc1cc(O)ccc1O)c1ccc(Cl)c(Cl)c1 [Example 12, 3,4-Dichloro-N′-(2,5-dihydroxy-benzylidene)-benzohydrazide] | 0.7 |  |  | 
38 | O=C(NN=Cc1ccccc1O)c1ccc(Br)cc1 [Example 31, 4-Bromo-N′-(2-hydroxy-benzylidene)-benzohydrazide] | 75 |  |  | 
39 | O=C(NN=Cc1cc(Cl)cc(Cl)c1O)c1ccccc1 [Example 48, N′-(2-Hydroxy-3,5-dichloro-benzylidene)-benzohydrazide] |  | 128 (≈ 414 µM) | > 128 | 
40 | COc1cc(C(=O)NN=Cc2cc(Cl)ccc2O)ccc1O [Example 14, 4-Hydroxy-3-methoxy-N′-(5-chloro-2-hydroxy-benzylidene)-benzohydrazide] | 25 | 128 (≈ 399 µM) | 128 (≈ 399 µM) | 
41 | COc1cccc(C(=O)NN=Cc2ccccc2O)c1 [Example 27, 3-Methoxy-N′-(2-hydroxy-benzylidene)-benzohydrazide] | 7 |  |  | 
42 | Nc1ccc(Cl)cc1C(=O)NN=Cc1ccccc1O [Example 5, 2-Amino-5-chloro-N′-(2-hydroxy-benzylidene)-benzohydrazide] | 6 |  |  | 
43 | Cc1cccc(C(=O)NN=Cc2cc(Cl)ccc2O)c1 [Example 20, 3-Methyl-N′-(5-chloro-2-hydroxy-benzylidene)-benzohydrazide] | 4 |  |  | 
44 | O=C(NN=Cc1cc(O)ccc1O)c1cccc(Cl)c1 [Example 13, 3-Chloro-N′-(2,5-dihydroxy-benzylidene)-benzohydrazide] | 0.7 |  |  | 
